US20140350049A1, “METHODS AND PHARMACEUTICAL COMPOSITIONS FOR THE TREATMENT OF DARIER DISEASE” (INSERM (INSTITUT NATIONAL DE LA SANTE ET DE LA RECHERCHE …, priority 2011, published 2014)

How the values were obtained:
Type in all cases: cell-based, human
[1] = test system: Darier keratinocytes (DK); test: Adherens junction formation in chaperone-treated Darier keratinocytes (immunofluorescence); conditions: for F-actin network organisation / cell shape (polygonal phenotype, characteristic of cell-to-cell adhesion) / staining of AJ components (E-cadherin and catenins) at the plasma membrane: DK pre-treated 24 h with PBA 5 mM or Miglustat 500 μM; for staining of AJ components (E-cadherin and catenins) at the plasma membrane: then 1.2 mM Ca2+
Procedure: (§1) Cell Culture. Keratinocytes were grown in 0.06 mM CaCl2 EpiLife medium (Invitrogen) to 60-80% confluence and then incubated in 1.2 mM CaCl2 EpiLife medium for 4 hours to induce formation of cell-cell contacts. […] Treatments with drugs. For ER stress induction, keratinocytes grown in high Ca^2+ (1.2 mM) medium were incubated with thapsigargin (TG, Sigma) at 1 μM for different time periods. For inhibition of SERCA pump in NK, keratinocytes were pretreated with 100 nM of TG for 30 min in low Ca^2+ (0.06 mM) medium. Medium was removed, and cells were incubated in high Ca^2+ (1.2 mM) medium for an additional 4 hours to induce the formation of cell-cell contacts. […] Immunofluorescence. Keratinocytes were cultured on coverslips, fixed with 4% paraformaldehyde for 30 minutes at room temperature, and permeabilized with 0.2% TritonX-100 in PBS for 10 minutes. After blocking with 1% fetal bovine serum in PBS, cells were incubated with primary antibodies at 4° C. overnight. Subsequently, cells were incubated with the appropriate Alexa-conjugated secondary antibody at room temperature for 1 hour. For actin staining, cells were incubated with phalloidin-TRITC at room temperature for 1 hour. Lastly, coverslips were mounted on glass slides using Vectashield Hard set (Vector laboratories) and examined using a Zeiss LSM 710 confocal microscope with a 40 Plan-Apochromat objective (1.3 oil) or a 63 Plan-Apochromat objective (1.4 oil), together with a 2× zoom.

[2] = test system: Darier keratinocytes (DK); test: E-cadherin and SERCA2 expression in chaperone-treated Darier keratinocytes; conditions: DK treated with PBA or Miglustat
Procedure: Treatments with drugs. For ER stress induction, keratinocytes grown in high Ca^2+ (1.2 mM) medium were incubated with thapsigargin (TG, Sigma) at 1 μM for different time periods. For inhibition of SERCA pump in NK, keratinocytes were pretreated with 100 nM of TG for 30 min in low Ca^2+ (0.06 mM) medium. Medium was removed, and cells were incubated in high Ca^2+ (1.2 mM) medium for an additional 4 hours to induce the formation of cell-cell contacts. […] Western-Blot. Keratinocytes were lysed in buffer containing 50 mM Tris (pH8), 120 mM NaCl, 0.5% NP-40, Complete™ protease inhibitors cocktail (Roche) and phosphatase inhibitor cocktail 2 (Sigma) for 30 minutes on ice and pelleted by centrifugation. The supernatant was collected for the quantification of protein amount by the Bradford assay. Equal amounts of soluble protein were added to Laemmli buffer (62.5 mM Tris HCl, pH 6.8, 5% ®-mercaptoethanol, 2% SDS, 10% glycerol, and 0.002% bromophenol blue). Samples were separated by SDS-PAGE and transferred onto Hybond-C extra membrane (GE Healthcare). β-actin immunodetection was used as a loading control. Blots were developed by chemiluminescence (ECL Advance, GE Healthcare or SuperSignal West Dura, Pierce).

[3] = test system: Darier keratinocytes (DK); test: ER morphology in chaperone-treated Darier keratinocytes (immunofluorescence); conditions: DK pre-treated 24 h with PBA 5 mM or Miglustat 500 μM
Procedure: (§2) Treatments with drugs. For ER stress induction, keratinocytes grown in high Ca^2+ (1.2 mM) medium were incubated with thapsigargin (TG, Sigma) at 1 μM for different time periods. For inhibition of SERCA pump in NK, keratinocytes were pretreated with 100 nM of TG for 30 min in low Ca^2+ (0.06 mM) medium. Medium was removed, and cells were incubated in high Ca^2+ (1.2 mM) medium for an additional 4 hours to induce the formation of cell-cell contacts.
(§3) Immunofluorescence. Keratinocytes were cultured on coverslips, fixed with 4% paraformaldehyde for 30 minutes at room temperature, and permeabilized with 0.2% TritonX-100 in PBS for 10 minutes. After blocking with 1% fetal bovine serum in PBS, cells were incubated with primary antibodies at 4° C. overnight. Subsequently, cells were incubated with the appropriate Alexa-conjugated secondary antibody at room temperature for 1 hour. […]
(§4) Quantification of intracellular compartment volumes and co-localization. For volume quantifications, all Z-series reconstructions were imaged with a pinhole of 1 Airy Unit with an optimal Z-step. […] Each isosurfaced was selected and the volume statistic recorded. Quantification of the co-localization signals was performed using the Metamorph (Molecular Devices) software. In a single optical section, the surface of the red signal (E-cadherin) that merges with a green signal (Calnexin) was calculated.

[4] = test system: Darier keratinocytes (DK); test: ER stress response (eIF2α and IRE1 phosphorylation, Western-Blot) in Darier keratinocytes; conditions: for TG-induced eIF2α phosphorylation: DK pre-treated 24 h with PBA 5 mM or Miglustat 500 μM
Procedure: (§5) Cell Culture. Keratinocytes were grown in 0.06 mM CaCl2 EpiLife medium (Invitrogen) to 60-80% confluence and then incubated in 1.2 mM CaCl2 EpiLife medium for 4 hours to induce formation of cell-cell contacts.
as §2
(§6) Western-Blot. Keratinocytes were lysed in buffer containing 50 mM Tris (pH8), 120 mM NaCl, 0.5% NP-40, Complete™ protease inhibitors cocktail (Roche) and phosphatase inhibitor cocktail 2 (Sigma) for 30 minutes on ice and pelleted by centrifugation. The supernatant was collected for the quantification of protein amount by the Bradford assay. Equal amounts of soluble protein were added to Laemmli buffer (62.5 mM Tris HCl, pH 6.8, 5% ®-mercaptoethanol, 2% SDS, 10% glycerol, and 0.002% bromophenol blue). Samples were separated by SDS-PAGE and transferred onto Hybond-C extra membrane (GE Healthcare). β-actin immunodetection was used as a loading control. Blots were developed by chemiluminescence (ECL Advance, GE Healthcare or SuperSignal West Dura, Pierce).

[5] = test system: Darier keratinocytes (DK); test: XBP1 mRNA splicing (RT-PCR) after TG treatment; conditions: DK compared to NK, TG 1 μM
Procedure: as §2
RT-PCR. RNA was isolated from keratinocytes using TRIzol (Invitrogen) and reverse transcribed using hexamer primers and Moloney murine leukemia virus RT. PCR amplification was performed.

[6] = test system: normal keratinocytes (NK); test: ER volume and cell spreading in TG-treated normal keratinocytes (immunofluorescence, volume quantification); conditions: TG-treated NK compared to untreated NK
Procedure: as §2, §3, §4

[7] = test system: normal keratinocytes (NK); test: E-cadherin retention in the ER (co-localization with calnexin) in TG-treated normal keratinocytes
Procedure: as §2, §3, §4

[8] = test system: normal keratinocytes (NK); test: Adherens junction formation in TG-pretreated normal keratinocytes (immunofluorescence); conditions: TG-pretreated NK (100 nM, 30 min) cultured in 1.2 mM Ca2+ for 4 hours
Procedure: as §1, with “Lastly, coverslips were mounted on glass slides using Vectashield Hard set (Vector laboratories) and examined using a Zeiss LSM 710 confocal microscope with a 40 Plan-Apochromat objective (1.3 oil) or a 63 Plan-Apochromat objective (1.4 oil), together with a 2× zoom.” left out

[9] = test system: normal keratinocytes (NK); test: ER stress response (eIF2α phosphorylation, Western-Blot) in normal keratinocytes; conditions: TG 1 μM, high Ca2+ (1.2 mM) medium
Procedure: as §5, §2
as §6, with “Blots were developed by chemiluminescence (ECL Advance, GE Healthcare or SuperSignal West Dura, Pierce).” left out

| Compound | effect on E-cadherin localization ([1]; DK, 500 μM, 24 h pre-treatment) | E-cadherin expression [2] | SERCA2 expression [2] | F-actin network organisation [1] | cell shape (polygonal phenotype, characteristic of cell-to-cell adhesion) [1] | staining of AJ components (E-cadherin and catenins) at the plasma membrane [1] | plasma membrane localization of E-cadherin ([1]; DK, lower concentration (100 μM)) | ER expansion / perinuclear condensation of the ER [3] | TG-induced eIF2α phosphorylation [4] | spliced, active form of XBP1 mRNA after TG treatment [5] | number of confluent cells per microscopy field [6] | ER volume ([6]; TG 100 nM 30 min) | E-cadherin intracellular surface overlapping with the calnexin positive compartment [7] | adherens junction (E-cadherin, catenins, F-actin) organisation [8] | increase of phospho-eIF2α after exposure to thapsigargin [9] | increase of phospho-eIF2α after exposure to thapsigargin ([4]; DK, TG 1 μM, high Ca2+ (1.2 mM) medium) | IRE1 phosphorylation after exposure to thapsigargin ([4]; DK, TG 1 μM, extent higher than in NK) |
| --- | --- | --- | --- | --- | --- | --- | --- | --- | --- | --- | --- | --- | --- | --- | --- | --- | --- |
| CCCCN1C[C@H](O)[C@@H](O)[C@@H](O)[C@H]1CO [NB-DGJ] | had not effect | – | – | – | – | – | – | – | – | – | – | – | – | – | – | – | – |
| CCCCN1C[C@H](O)[C@@H](O)[C@H](O)[C@H]1CO [Miglustat, 1,5-(butylimino)-1,5-dideoxy-D-glucitol] | – | neither PBA nor Miglustat increased | neither PBA nor Miglustat increased | polymerization of the F-actin network | all cells present a polygonal phenotype | a narrow, intense, continuous pericellular staining of all AJ components at the plasma membrane | increased plasma membrane localization of E-cadherin only in a limited number of cells | Neither TG-induced eIF2α phosphorylation nor ER expansion were reduced | Neither TG-induced eIF2α phosphorylation nor ER expansion were reduced | – | – | – | – | – | – | – | – |
| O=C(O)CCCc1ccccc1 [PBA, 4-phenylbutyric acid] | – | neither PBA nor Miglustat increased | neither PBA nor Miglustat increased | cortical bundles of F-actin parallel and closer to the cell membrane | acquired a pronounced polygonal shape | a linear, sharp and more intense pericellular staining of E-cadherin and catenins | – | restored perinuclear condensation of the ER | decreased | – | – | – | – | – | – | – | – |
| C/C=C(/C)C(=O)O[C@H]1C(C)=C2[C@H]([C@@H]1OC(=O)CCCCCCC)[C@@](C)(OC(C)=O)C[C@H](OC(=O)CCC)[C@@]1(O)[C@H]2OC(=O)[C@@]1(C)O [TG, thapsigargin] | – | – | – | – | – | – | – | – | – | increased in DK compared to NK | always smaller | two-fold increase | significant E-cadherin retention in the ER | AJ abnormalities similar to those in DK | 1.5 fold | 2- to 3 fold | increased |
